The source made the active and inactive calls. The calls are words filed in the database; no cut-off is given here.
Assays:
[1] = test system: Pseudomonas aeruginosa; test: Antibacterial activity against Pseudomonas aeruginosa 27853 assessed as inhibition of bacterial growth incubated for 24 hrs by CLSI protocol based method; assay type: functional, organism-based
[2] = test system: Pseudomonas aeruginosa; test: Antibiofilm activity against Pseudomonas aeruginosa PAO1 assessed as inhibition of biofilm formation incubated for 24 hrs by crystal violet staining based analysis; assay type: functional, organism-based; conditions: PAO1, 24 h
[3] = test system: Pseudomonas aeruginosa; test: Antibacterial activity against Pseudomonas aeruginosa PAO1 assessed as inhibition of bacterial growth at 0.1 to 50 uM measured upto 24 hrs by CLSI protocol based method; assay type: functional, organism-based; conditions: dose 0.1-50 µM
[4] = Inhibition of quorum sensing system in wildtype Pseudomonas aeruginosa PAO1 assessed as inhibition of rhamnolipid production incubated for 24 hrs by absorbance based microtiter plate reader analysis
[5] = Inhibition of quorum sensing system in Pseudomonas aeruginosa PAO1 transfected with mini-ctx-lasB-lacZ reporter gene assessed as decrease in beta-galactosidase activity incubated for 6 hrs by Miller assay; conditions: dose 1.25-20 µM
[6] = Inhibition of quorum sensing system in Pseudomonas aeruginosa PAO1 transfected with mini-ctx-pqsA-lacZ reporter gene assessed as decrease in beta-galactosidase activity incubated for 6 hrs by Miller assay; conditions: dose 1.25-20 µM
[7] = test system: Pseudomonas aeruginosa; test: Inhibition of motility in Pseudomonas aeruginosa PAO1 assessed as reduction in swarming movements incubated for 16 hrs by motility assay; assay type: functional, organism-based; conditions: dose 1.25-50 µM
[8] = test system: Pseudomonas aeruginosa; test: Inhibition of motility in Pseudomonas aeruginosa PAO1 assessed as reduction in swimming movements incubated for 16 hrs by motility assay; assay type: functional, organism-based; conditions: dose 1.25-50 µM
[9] = Metal chelating activity assessed as Fe3+ chelation by measuring iron chelation constant by fluorescence competition assay
[10] = test system: Pseudomonas aeruginosa; test: Antibacterial activity against Pseudomonas aeruginosa clinical isolate 0807 assessed as inhibition of bacterial growth incubated for 24 hrs by CLSI protocol based method; assay type: functional, organism-based
[11] = test system: Pseudomonas aeruginosa; test: Antibacterial activity against Pseudomonas aeruginosa clinical isolate 0815 assessed as inhibition of bacterial growth incubated for 24 hrs by CLSI protocol based method; assay type: functional, organism-based
[12] = test system: Pseudomonas aeruginosa; test: Antivirulence activity in Pseudomonas aeruginosa clinical isolate 1167 assessed as reduction in rhamnolipid production at 10 uM incubated for 24 hrs by absorbance based microtiter plate reader analysis; assay type: functional, organism-based
[13] = test system: Pseudomonas aeruginosa; test: Antivirulence activity in Pseudomonas aeruginosa clinical isolate 1121 assessed as reduction in pyocyanin production at 10 uM incubated for 24 hrs by absorbance based analysis; assay type: functional, organism-based
[14] = test system: Pseudomonas aeruginosa; test: Synergistic antibacterial activity against Pseudomonas aeruginosa PAO1 assessed as reduction in cell viability at 10 to 50 uM incubated for 24 hrs in the presence of 1/8 MIC of tobramycin by LB agar plate method; assay type: functional, organism-based; conditions: dose 10-50 µM
[15] = test system: Pseudomonas aeruginosa; test: Antibacterial activity against Pseudomonas aeruginosa PAO1 assessed as bacterial survival rate at 10 to 50 uM incubated for 24 hrs by LB agar plate method relative to control; assay type: functional; conditions: dose 10-50 µM
[16] = test system: Pseudomonas aeruginosa; test: Synergistic antibacterial activity against Pseudomonas aeruginosa PAO1 assessed as fold reduction in bacterial survival rate at 50 uM incubated for 24 hrs in presence of 1/2 MIC of […] by LB agar plate method relative to polymyxin B alone; assay type: functional
[17] = test system: Pseudomonas aeruginosa; test: Synergistic antibacterial activity against Pseudomonas aeruginosa PAO1 assessed as fold reduction in bacterial survival rate incubated for 24 hrs in presence of tetracycline by LB agar plate method; assay type: functional
[18] = test system: Pseudomonas aeruginosa; test: Synergistic antibacterial activity against Pseudomonas aeruginosa clinical isolate 1167 assessed as reduction in bacterial viability at 10 to 50 uM incubated for 24 hrs in presence of 1/2 MIC of tobramycin by LB agar plate method; assay type: functional, organism-based; conditions: dose 10-50 µM
[19] = test system: Pseudomonas aeruginosa; test: Synergistic antibacterial activity against Pseudomonas aeruginosa clinical isolate 1121 assessed as reduction in bacterial viability at 10 to 50 uM incubated for 24 hrs in presence of 1/4 MIC of tobramycin by LB agar plate method; assay type: functional, organism-based; conditions: dose 10-50 µM
[20] = test system: Pseudomonas aeruginosa; test: Synergistic antibacterial activity against Pseudomonas aeruginosa clinical isolate 0815 assessed as reduction in bacterial viability at 10 to 50 uM incubated for 24 hrs in presence of 1/2 MIC of polymyxin B by LB agar plate method; assay type: functional, organism-based; conditions: dose 10-50 µM
[21] = test system: Pseudomonas aeruginosa; test: Synergistic antibacterial activity against Pseudomonas aeruginosa clinical isolate 1121 assessed as reduction in bacterial viability at 10 to 50 uM incubated for 24 hrs in presence of 1/4 MIC of polymyxin B by LB agar plate method; assay type: functional, organism-based; conditions: dose 10-50 µM
[22] = test system: Pseudomonas aeruginosa; test: Synergistic antibacterial activity against Pseudomonas aeruginosa clinical isolate 1121 assessed as reduction in bacterial viability at 10 to 50 uM incubated for 24 hrs in presence of 1/8 MIC of polymyxin B by LB agar plate method; assay type: functional, organism-based; conditions: dose 10-50 µM
[23] = Cytotoxicity against African green monkey Vero cells assessed as reduction in cell viability at 200 uM incubated for 24 hrs by MTT assay; assay type: toxicity, cell-based; conditions: chlorocebus sabaeus
[24] = test system: Pseudomonas aeruginosa; test: Antibacterial activity against Pseudomonas aeruginosa PAO1 infected in Caenorhabditis elegans assessed as worm survival rate at 50 uM measured after 96 hrs in presence of polymyxin B at 1/2 MIC by bright field microscopic analysis relative to control; assay type: functional
[25] = test system: Pseudomonas aeruginosa; test: Induction of Fe3+ chelating activity in Pseudomonas aeruginosa PAO1 assessed as increase in pyoverdine production by measuring fold change at 20 uM incubated for 24 hrs by fluorescence microplate reader

SMILES: Cc1cc(=O)c(O)c(C(=O)NCCCCCCCCNc2ccnc3cc(Cl)ccc23)n1C.Cl
- Activity [1]: inactive
- IC50 [2]: 5.8 µM
- Activity [3]: inactive
- IC50 [4]: 39.2 µM
- inhibition [5]: Dose-Dependent Effect
- inhibition [6]: Dose-Dependent Effect
- inhibition [7]: Dose-Dependent Effect
- inhibition [8]: Dose-Dependent Effect
- pFe3+ [9]: 20.6
- Activity [10]: inactive
- Activity [11]: inactive
- Activity [12]: Active
- Activity [13]: Active
- Activity [14]: Active
- Survival [15]: ~100%
- fold change (FC) [16]: ~100
- fold change (FC) [17]: <10
- Activity [18]: Active
- Activity [19]: Active
- Activity [20]: Active
- Activity [21]: Active
- Activity [22]: Active
- Activity [23]: Toxic
- survival at 50 µM [24]: 91.2%
- fold change (FC) [25]: 10

— ChEMBL document CHEMBL5614443, “Hybrids of 3-Hydroxypyridin-4(1H)-ones and Long-Chain 4-Aminoquinolines as Potent Biofilm Inhibitors of Pseudomonas aeruginosa Potentiate Tobramycin and Polymyxin B Activity” (J Med Chem, 2024)
